# PubChem BioAssay AID1159561 (GlaxoSmithKline (GSK), 2015)
# Calls of active or inactive are those of the source.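 The calls were made as follows: active = toxic to mouse fibroblast host cells, with IC50 below 50 µM; inactive = the rest.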
# Tested on: NIH-3T3 viability, ATP luminescence
# Test: murine fibroblast viability via ATP level – cell-based, murine fibroblasts, cytotoxicity control for Trypanosoma cruzi inhibitor project (AID 1159561)
# Conditions: 4 days
row,Compound,IC50
1,Clc1ccc(Sc2cnccc2N2CCOCC2)cc1,> 50 µM (inactive)
2,COc1ccccc1-c1c(C)[nH]c2nc(N)nc(C)c12,> 50 µM (inactive)
3,CC(C)(C)C(Cn1ccnc1)NC(=O)c1ccc2nc(C3CC3)oc2c1 (stereo not drawn),> 50 µM (inactive)
4,FC(F)(F)c1cc(C2CCCN(Cc3c[nH]c4ccccc34)C2)nc2ncnn12 (stereo not drawn),20 µM
5,CN(Cc1cccnc1)Cc1ccc(N2CCN(C(=O)C3(c4ccc(Cl)cc4)CC3)CC2)nc1,7.9 µM
6,Cc1sc(C)c(C(F)(F)F)c1CNCCCNc1cc(=O)c2ccccc2[nH]1,10 µM
7,O=C(Nc1cccc(Cl)c1)N1CCCCC1c1cccnc1 (stereo not drawn),32 µM
8,c1ccc(CCNCc2cncc3nc(-c4cnccn4)n(C4CCCCC4)c23)cc1,6.3 µM
9,O=C(Nc1ccc(Br)c(Cl)c1)Nc1ccc2c(c1)OCO2,16 µM
10,Cc1ccc2ccc(C(Nc3ccccn3)c3cccnc3)c(O)c2n1 (stereo not drawn),10 µM
11,CC(C)Oc1ccc(C(=O)Nc2ccc(N3CCOCC3)c(Cl)c2)cc1,10 µM
12,COc1ccc2ncc(=O)n(CCN3CCOC(CNCc4ccc(C(F)(F)F)cc4F)C3)c2n1 (stereo not drawn),4 µM
13,CN(C)Cc1ccc(-c2ccc(S(=O)(=O)NCC3CCCO3)c(F)c2)cc1 (stereo not drawn),16 µM
14,Fc1ccccc1N1C[C@H]2CCN(c3cccnc3)C[C@H]2C1,13 µM
15,O=c1ccc2ccc(F)c3c2n1C[C@H]3CN1CCC(NCc2cc3ccccc3o2)CC1,20 µM
16,CC1(Oc2cncc(Cl)c2)CCN(Cc2cc3ccccc3[nH]2)C1 (stereo not drawn),10 µM
17,CCC(=O)Nc1ccc(-c2nc3ccc(Cl)cc3[nH]2)cc1,> 50 µM (inactive)
18,Cc1ccc(NC(=O)c2ccc(Cl)c(NC(=O)c3ccc([N+](=O)[O-])cc3)c2)cc1,20 µM
19,COc1ccc(-c2ccc3nnc(-c4ccc(O)c(OC)c4)n3c2)cn1,50 µM
20,N#Cc1cccc(CN2CCC(N(Cc3cccnc3)C(=O)c3cc(F)c(F)cc3F)CC2)c1,20 µM
21,CC(C)Nc1nccc(-c2c(-c3ccc(F)cc3)ncn2C2CCOCC2)n1,> 50 µM (inactive)
22,COc1ccc(C(C)(C)C)cc1S(=O)(=O)n1ccnc1,> 50 µM (inactive)
23,CN(Cc1ccccc1)Cc1nnnn1C1CCN(Cc2ccc(-n3ccnc3)cc2)CC1,4 µM
24,Clc1ccc(C(CC2CCCCO2)Cn2cncn2)c(Cl)c1 (stereo not drawn),40 µM
25,O=C(NCCc1nc(-c2ccc(F)c(F)c2)n[nH]1)C1CCCCC1,> 50 µM (inactive)
26,O=S(=O)(NCC(c1cccnc1)N1CCN(c2ccc(F)cc2)CC1)c1cccs1 (stereo not drawn),> 50 µM (inactive)

row,Compound,IC50
1,COc1ccc2nccc([C@H](O)CN3CC[C@H](NC(=O)c4ccc(Br)cc4)[C@@H](O)C3)c2n1,> 50 µM (inactive)
2,COc1cccc(CCNC(=O)C(c2cn[nH]c2)N2CCN(c3ccc(Cl)cc3)CC2)c1 (stereo not drawn),32 µM
3,CN(C(=O)Nc1ccc2c(c1)CCN(C1CCC1)CC2)c1ccc(C#N)cc1,40 µM
4,CC1=NN(C(=O)CCn2cnc([N+](=O)[O-])n2)C(O)(C(F)(F)F)C1 (stereo not drawn),> 50 µM (inactive)
5,N#Cc1c(Oc2cccc(Cl)c2)cccc1[N+](=O)[O-],20 µM
6,COc1cc(C(C)C)c(S(C)(=O)=O)cc1C(=O)N1CCN(c2ccccc2Cl)CC1,> 50 µM (inactive)
7,Cc1nccn1C1CCCN(C(=O)c2cc3c(F)cccc3s2)C1 (stereo not drawn),20 µM
8,CCCN(Cc1ccc(OC)c(OC)c1)Cc1cc(=O)c2c(C)cc(C)cc2[nH]1,32 µM
9,CC(Cn1ccnc1)NC(=O)COc1ccc(Cl)c(Cl)c1 (stereo not drawn),> 50 µM (inactive)
10,COc1cc(-c2nc(N3CCOCC3)sc2-c2ccnc(NC3CCOCC3)n2)ccc1Cl,> 50 µM (inactive)
11,Cc1cc2ncn(-c3ccc([N+](=O)[O-])cc3C#N)c2cc1C,> 50 µM (inactive)
12,CC(CNS(=O)(=O)c1ccc(OC(F)F)cc1)c1ccc(NC(=O)c2ccncc2)cc1 (stereo not drawn),> 50 µM (inactive)
13,CCCCNc1nccc(-c2c(-c3ccc(F)cc3)nn3c(N4CCOCC4)cccc23)n1,10 µM
14,O=c1oc2ccccc2n1C1CCN(Cc2ccccc2-c2cccnc2)CC1,16 µM
15,O=C(NCc1ccncc1)c1ccccc1N1CCCN(C(=O)Cc2ccc(F)c(F)c2)CC1,16 µM
16,CCCN1CCN(Cc2ccc(S(=O)(=O)Nc3cccc(C)c3)cc2)CC1,25 µM
17,COc1ccc([N+](=O)[O-])cc1NC(=O)Nc1cccc(Cl)c1,> 50 µM (inactive)
18,O=C(Cn1cnc2cc([N+](=O)[O-])ccc2c1=O)NCCc1ccc(Cl)cc1Cl,> 50 µM (inactive)
19,CNc1cncc(C2CCCN2C(=O)Cc2coc3cc(C)ccc23)n1 (stereo not drawn),> 50 µM (inactive)
20,O=c1[nH]c(C=Cc2cccc(OCCOc3ccccc3)c2)nc(O)c1[N+](=O)[O-],> 50 µM (inactive)
21,Cc1[nH]c2ccccc2c(=O)c1Cc1c(C)[nH]c2ccccc2c1=O,> 50 µM (inactive)
22,O=C(NCC1CCCCC1)c1cc(=O)c2ccccc2o1,32 µM
23,CC(C)N(C(=O)CN1C(=O)C(N)C(=O)N(c2ccccc2)c2ccccc21)c1ccccc1 (stereo not drawn),20 µM
24,CCN(C)Cc1ccc(N2CCC(NS(=O)(=O)c3ccc4c(c3)CCO4)CC2)nc1,13 µM
25,O=C(CN(c1cccc(C(F)(F)F)c1)S(=O)(=O)c1ccc(Cl)cc1)NCc1ccc(F)c(F)c1,32 µM
26,COc1cc(NC(=O)Nc2cccc(CNC(=O)OC3CCCCC3)c2)ccc1-c1cnco1,10 µM

row,Compound,IC50
1,COc1ccc(C2CC(c3ccccc3Cl)=NN2C(=O)CNC(=O)C2CCC2)cc1 (stereo not drawn),32 µM
2,N#Cc1ccc(S(=O)(=O)N2CCC3(CCN(c4ccccc4)C3=O)CC2)cc1,> 50 µM (inactive)
3,CC1=C(C(=O)Nc2ccc(Cl)cc2)C(c2ccncc2)n2ncc(C(=O)Nc3ccccc3)c2N1 (stereo not drawn),32 µM
4,N#Cc1nc(C=Cc2ccccc2)oc1NCc1cccnc1,13 µM
5,O=C(c1ccc(OCCCc2cnc[nH]2)cc1)C1CC1,13 µM
6,OCCCNc1nc(Nc2ccncc2)nc2ccccc12,> 50 µM (inactive)
7,c1cncc(CN(Cc2ccco2)Cc2cn[nH]c2-c2cccs2)c1,32 µM
8,CN1CCCN(C(=O)c2ccc(N3CCCC3)cc2Cl)CC1,25 µM
9,O=C(NCCc1ccccn1)C(c1cn[nH]c1)N1CCN(c2ccc(Cl)c(Cl)c2)CC1 (stereo not drawn),32 µM
10,CNc1cncc(C2CCCN2C(=O)Cc2ccc3ccccc3c2)n1 (stereo not drawn),> 50 µM (inactive)
11,Cc1ccc(S(=O)(=O)Nc2ccc(CN3CCN(C(=O)c4cccc(C#N)c4)CC3)cc2)cc1,> 50 µM (inactive)
12,Cc1cc2cncn2c(C2CCCCN2C(=O)c2cccs2)n1 (stereo not drawn),> 50 µM (inactive)
13,O=C(NC(c1ccc(Cl)cc1)c1cnccn1)C1CCN(C(=O)Nc2cccc(C(F)(F)F)c2)CC1 (stereo not drawn),40 µM
14,Cc1nn(C)c(Cl)c1CN(Cc1cccnc1)Cc1ccsc1,20 µM
15,C=CCn1nc([N+](=O)[O-])nc1Oc1ccc(Cl)cc1Cl,50 µM
16,CC(C)c1cc(C(=O)N2CCCC(c3cc4ncccc4[nH]3)C2)on1 (stereo not drawn),20 µM
17,O=C(NCCc1ccccc1Cl)c1cccn1-c1cccnc1,32 µM
18,CC(=O)Nc1ccc(-c2csc(NC(=O)c3ccc([N+](=O)[O-])s3)n2)cc1,6.3 µM
19,Cc1ccc(S(=O)(=O)Cn2nnnc2C(c2cccnc2)N2CCN(c3ccccc3)CC2)cc1 (stereo not drawn),32 µM
20,Cc1c(C(C)NC(=O)Nc2cccc(Cl)c2)sc2ncnn12 (stereo not drawn),> 50 µM (inactive)
21,Cn1nccc1-c1cc(OC(CN)c2ccccc2)cnc1-c1ccco1 (stereo not drawn),20 µM
22,O=[N+]([O-])c1cccc(Nc2cncc(-c3ccccc3CO)c2)c1,40 µM
23,O=C(NCC(c1cccnc1)N1CCc2ccccc2C1)C(=O)Nc1cccc(Cl)c1 (stereo not drawn),25 µM
24,O=C(NCCNc1noc(-c2ccc([N+](=O)[O-])cc2)n1)c1ccc(Cl)cc1,> 50 µM (inactive)
25,CN(C)CCN(C)Cc1ccc(F)cc1NS(=O)(=O)c1ccc(Cl)c(Cl)c1,16 µM
26,CC(Cn1ccnc1)NC(=O)C=Cc1ccc(Cl)cc1 (stereo not drawn),> 50 µM (inactive)

row,Compound,IC50
1,Cc1ccc(CNC2CCN(C[C@@H]3Cn4c(=O)ccc5ccc(=O)n3c54)CC2)cc1F,16 µM
2,O=C(CSc1ccc(F)cc1)N[C@@H](Cc1cnc[nH]1)C(=O)NCCc1ccccc1,13 µM
3,Clc1ccc(OCCN2CCCCC2c2cccnc2)c(Cl)c1 (stereo not drawn),25 µM
4,CCN(Cc1ccncc1)Cc1ccc(NC(=O)c2cc(-c3ccc(F)cc3)n[nH]2)cc1,10 µM
5,CC(=O)Nc1ccc(-c2noc(CC3CCCN(Cc4cccc(F)c4C)C3)n2)cc1 (stereo not drawn),25 µM
6,O=c1cc(NCCCNC2CCOc3c(I)cc(Cl)cc32)[nH]c2ccccc12 (stereo not drawn),25 µM
7,COc1ccc(C)cc1-c1csc(NC(=O)C(C)n2ccnc2)n1 (stereo not drawn),50 µM
8,Cc1c(CNC(=O)c2ccc(Cn3cc(Cl)c([N+](=O)[O-])n3)cc2)cnn1C,> 50 µM (inactive)
9,CCC1Oc2cc(S(=O)(=O)N(C)CC(=O)N3CCc4ccccc4C3)c(C)cc2NC1=O (stereo not drawn),> 50 µM (inactive)
10,O=C(C1CCCCC1)N1CCN(c2nnc(-c3ccccc3)c3ccccc23)CC1,> 50 µM (inactive)
11,Cc1cc(C)nc(N2CCC(N(Cc3cccnc3)C(=O)c3cccc(C#N)c3)CC2)n1,7.9 µM
12,NC(=O)c1ccccc1Nc1nc(NC2CCCCC2)nc2[nH]ccc12,25 µM
13,CS(=O)(=O)NC1CCC(Oc2cc3cnccc3cc2-c2ccsc2)CC1 (stereo not drawn),16 µM
14,O=c1[nH]cnc2c([C@@H]3O[C@H](CO)[C@@H](O)[C@H]3O)[nH]nc12,> 50 µM (inactive)
15,CC(C)Oc1cccc(N2CCC(C(=O)N3CCCN(C(C)C)CC3)CC2)c1,32 µM
16,CN1CCN(c2nc(-c3ccc(Cl)cc3)c3c(N)n(C)nc3n2)CC1,25 µM
17,OC1CCC(Nc2nccc(-c3sc(C4CCOCC4)nc3-c3ccc(F)c(F)c3)n2)CC1 (stereo not drawn),40 µM
18,Cn1c(CN2CCN(c3ncc(C(F)(F)F)cc3Cl)CC2)nc2ccncc21,10 µM
19,COc1ccc(S(=O)(=O)Nc2ccccc2OC)cc1NC(=O)CCCc1c[nH]c2ccccc12,> 50 µM (inactive)
20,CCCCn1nnnc1CSc1nc(C)cc(C)c1C#N,> 50 µM (inactive)
21,O=S(=O)(NCC(c1cccnc1)N1CCN(c2ccccc2F)CC1)c1ccc(F)cc1 (stereo not drawn),> 50 µM (inactive)
22,CN(Cc1ccc(C(N)=O)cc1)C(c1ccc(F)cc1)c1cccnc1 (stereo not drawn),32 µM
23,CN(C)c1ccc(-c2cc3nccnc3c(OC[C@H]3CCCNC3)n2)cn1,16 µM
24,Cc1ccc2nc(N(Cc3cccnc3)C(=O)CCc3ccccc3)sc2c1,16 µM
25,COc1ccccc1C=CCN1C[C@H]2CCC[C@@H](C1)C2(O)c1cccnc1 (stereo partly drawn),32 µM
